Laboratory results as given in PMC12337082 (Journal of Biochemical and Molecular Toxicology, 2025).
Entries after “also recorded” stand apart in the source; their conditions may differ. Where two headings read alike, the source gives them in different places.

Experiments:
MDA‐MB‐231 [1] = conditions: MDA‐MB‐231, 24 h, cited from earlier work
MCF‐7 [2] = conditions: cited from earlier work
[3] = tested on: cancer cell proliferation; design: method as in PMID 27074576; conditions: read-out: Effective range of cytotoxicity IC50 values in inhibiting cancer cell proliferation; cited from earlier work
PGE2 release [4] = experiment: PGE2 ELISA, MCF‐7; type: cell-based, human; conditions: MCF‐7, 3 µM
Protocol: (§1) PGE2 ELISA kit (ENZO, ADI‐900‐001) was used to determine prostaglandin synthesis levels. MCF‐7 and MDA‐MB‐231 breast cancer cells were cultured at a density of 1 × 10^6 cells/well in a 6‐well culture dish. […] Following 24 h of incubation, the medium was replaced with a fresh one, 10 µM arachidonic acid was added, and it was further incubated for 1 h. The PGE2 levels were determined according to the kit protocol.

PGE2 release [5] = experiment: PGE2 ELISA, MDA‐MB‐231; type: cell-based, human; conditions: MDA‐MB‐231, 3 µM
Protocol: as §1

[6] = tested on: multiple myeloma cell lines; design: method as in Yasui et al. (2007) [63]; conditions: 48 h, ref Yasui et al. (2007) [63]; cited from earlier work
Bax/Bcl‐2 ratio = experiment: Western blot Bax/Bcl‐2 ratio in breast cancer cell lines; type: cell-based, human; conditions: 50 and 75 µM, 24 h
Protocol: (§2) Total protein levels were measured using the Take3 Multi‐Volume Plate (Synergy H1, BioTek Instruments Inc., Vermont, USA). In accordance with the classical protocol, transferred proteins were exposed to the following primary antibodies: Beta‐actin (NB600‐501, Novus Biologicals), Bax (SPM336, NBP2‐32809), Bcl‐2 (100/D5, NBP2‐15200), cleaved PARP (194C1439, NBP2‐27335), and COX‐2 (D‐12:sc‐166475, Santa Cruz). The bands were visualized with chemiluminescent HRP substrates (Western Bright ECL‐Advansta, K‐12045‐050). Using a chemiluminescence imaging system (Celvin S, BioStep), the relative quantification was done based on the level of β‐actin proteins.

COX‐2 [7] = experiment: Western blot COX‐2 protein expression, MCF‐7; type: cell-based, human; conditions: 24 h
Protocol: as §2

L‐929 = experiment: Mitochondrial membrane potential (JC‐1) apoptosis assay, L‐929; type: cell-based, mouse; conditions: L‐929, 50 μM, 24 h, MMP assay
Protocol: (§3) Apoptosis was also investigated by evaluating mitochondrial membrane potential changes (MMP assay). MCF‐7, MDA‐MB‐231, and L‐929 cells were stained with JC‐1 dye according to the manufacturer's protocols (JC‐1 MMP Assay Kit, KA1324, Abnova). The apoptotic to healthy cell ratio was calculated using absorbances collected from two different fluorescence channels (535/595 for healthy cells, 485/535 for apoptotic cells) (Synergy H1, Biotech Instruments Inc., Vermont, USA).

MDA‐MB‐231 [8] = experiment: Mitochondrial membrane potential (JC‐1) apoptosis assay, MDA‐MB‐231; type: cell-based, human; conditions: MDA‐MB‐231, 50 μM, 24 h, MMP assay
Protocol: as §3

MCF‐7 [9] = experiment: Annexin V/PI staining, Tali image‐based cytometry, MCF‐7; type: cell-based, human; conditions: MCF‐7, 24 h
Text: (§4) To assess apoptosis and cell death, cells were stained with Annexin V‐PI dyes (Tali Apoptosis Kit‐Annexin V Alexa Fluor 488 and PI‐, Molecular Probes A10788, Invitrogen) and quantified using Tali Image‐Based Cytometer (Invitrogen) and fluorescence microscopy (Olympus CKX41 Inverted Phase Contrast Fluorescence Microscope furbished with reflected fluorescence illuminator CKX‐RFA).
(§5) To assess whether our compounds produce their cytotoxic effects through induction of apoptosis, apoptosis was investigated using Annexin V/PI labeling and MMP methods (Figures 4A−C). In addition, by utilizing TALI image‐based cytometry and fluorescent microscopy, the number of cells was analyzed for different concentrations of agents (Table 4).

MCF‐7 [10] = experiment: MTT cell viability assay, MCF‐7; type: cell-based, human; conditions: for IC50: Homo sapiens, MCF7, MTT
Text: (§6) MCF‐7, MDA‐MB‐231, and L‐929 mouse fibroblast cell lines were obtained from the American Type Culture Collection (ATCC, Manassas, Virginia, USA). MCF‐7 is a hormone‐responsive, differentiated mammary epithelium cell line with an ER+, PR+, and HER2‐ pattern (ATCC, HTB‐22). MDA‐MB‐231 is a triple‐negative differentiated mammary epithelium cell line (ATCC, HTB‐26). The L‐929 mouse fibroblast cell line is derived from the normal subcutaneous connective tissue of a mouse and is commonly used in cytotoxicity assays (ATCC, CCL‐1). All cell lines were cultured in DMEM medium (Dulbecco's Modified Eagle Medium, Gibco), supplemented with 10% fetal bovine serum (Gibco), 1% glutamine, and penicillin/streptomycin (Gibco) in a humidified atmosphere containing 5% CO2 at 37°C. Cell viability was tested using Trypan blue staining.
(§7) The MTT [3‐(4,5‐dimethylthiazol‐2‐yl)−2,5‐diphenyltetrazolium bromide] assay is a colorimetric assay for determining cell metabolic activity. In the MTT assay, the yellow dye MTT that dissolves in water is changed by mitochondrial reductase into a purple formazan that is non‐soluble. The water‐insoluble formazan produced is solubilized in a solubilization buffer, and absorbances are detected.
(§8) In 96‐well plates, the cells were cultivated at a density of 5 × 10^3 cells/well using 100 µL medium. […] 10 μL of the MTT labeling reagent (final concentration 0.5 mg/mL) were added to each well at the end of the incubation periods, and the wells were incubated for an additional 4 h. Next, each well received 100 μL of solubilization buffer (10% SDS in 0.01 M HCl) and was overnight incubated, and the absorbance of formazan products was evaluated at 550 nm using a multi‐mode microplate reader (Synergy H1, Biotech Instruments Inc., Vermont, USA). The results were normalized relative to the absorbances of calculated percent concentrations of DMSO. All tests involved three replicates with three independent experiments.
(§9) All statistical evaluations, including t‐tests and IC50 values, were calculated using the GraphPad Prism software tool (v6.0, GraphPad Software Inc., San Diego, USA). Statistical significance was defined as p ˂ 0.05 (*p < 0.05, **p < 0.01, ***p < 0.001, ****p < 0.0001).

[11] = tested on: L‐929 mouse fibroblast cell line; experiment: MTT cell viability assay, L‐929 control fibroblasts; type: cell-based; conditions: Mus musculus
Text: as §6, §7, §8, §9

MDA‐MB‐231 [12] = experiment: Annexin V/PI staining, Tali image‐based cytometry, MDA‐MB‐231; type: cell-based, human; conditions: MDA‐MB‐231, 24 h
Text: as §4, §5

MCF‐7 [13] = experiment: Mitochondrial membrane potential (JC‐1) apoptosis assay, MCF‐7; type: cell-based, human; conditions: MCF‐7, 50 μM, 24 h, MMP assay
Protocol: as §3

MDA‐MB‐231 [14] = experiment: MTT cell viability assay, MDA‐MB‐231; type: cell-based, human; conditions: for IC50: Homo sapiens, MTT
Text: as §6, §7, §8, §9

COX‐2 [15] = experiment: Western blot COX‐2 protein expression, MDA‐MB‐231; type: cell-based, human; conditions: 24 h
Protocol: as §2

c‐PARP = experiment: Western blot cleaved PARP, MDA‐MB‐231; type: cell-based, human; conditions: MDA‐MB‐231, 24 h, all concentrations (50 and 75 µM); not measurable in MCF‐7
Protocol: as §2

[16] = tested on: MCF‐7, MDA‐MB‐231, and L‐929; experiment: MTT cell viability assay, statements over all cell lines; type: cell-based; conditions: 25 µM; MCF‐7, MDA‐MB‐231 and L‐929; not dose‐dependent
Text: as §6, §7, §8
All statistical evaluations, including t‐tests and IC50 values, were calculated using the GraphPad Prism software tool (v6.0, GraphPad Software Inc., San Diego, USA). […]

[17] = MCF‐7 in comparison to L‐929, 24 h
[18] = MCF‐7 in comparison to L‐929, 48 h
[19] = MDA-MB-231, 24 h, MDA‐MB‐231, 24 h
[20] = MDA-MB-231, 48 h, MDA‐MB‐231, 48 h
[21] = MDA‐MB‐231 in comparison to L‐929, 24 h
[22] = MDA‐MB‐231 in comparison to L‐929, 48 h

O=c1[nH]cc(F)c(=O)[nH]1 [5‐FU]
IC50 (MDA‐MB‐231 [1]; ref Badawi et al. (2023) [68]): 11.7 µM
IC50 (MCF‐7 [2]; MCF‐7, 24 h, ref Badawi et al. (2023) [68]): 17 µM

Cc1ccc(-c2cc(C(F)(F)F)nn2-c2ccc(S(N)(=O)=O)cc2)cc1 [Celecoxib]
IC50 (MDA‐MB‐231 [1]; monolayer cultures, ref Huang et al. (2017) [64]): 40.1 µM
IC50 (MDA‐MB‐231 [1]; monolayer cultures, ref Huang et al. (2017) [64], listed as celecoxib): 89 µM
IC50 [3]: 25 to 100 µM
IC50 (MCF‐7 [2]; MCF‐7, 24 h, monolayer cultures, ref Huang et al. (2017) [64]): 89 µM
IC50 (MCF‐7 [2]; MCF‐7, 24 h, monolayer cultures, ref Huang et al. (2017) [64], listed as celecoxib): 40.1 µM

CS(=O)(=O)c1ccc(-c2cc(Br)sc2-c2ccc(F)cc2)cc1 [DUP‐697]
Reduction of PGE2 release (PGE2 release [4]): 46%
Reduction of PGE2 release (PGE2 release [5]): 88%

CCc1cccc2c3c([nH]c12)[C@@](CC)(CC(=O)O)OCC3 [Etodolac R‐enantiomer SDX‐101]
IC50 [6]: 490 µM

CCc1cc(Br)cc2c3c([nH]c12)C(CC)(CCO)OCC3 (stereo not shown) [Etodolac analog SDX‐308]
IC50 [6]: 23.8 µM

CC(C)Cc1ccc(C(C)C(=O)O)cc1 (stereo not shown) [Ibuprofen]
IC50 (MCF‐7 [2]; MCF‐7, 48 h, ref Daniel Pedro‐Hernández et al. (2020) [67]): 92.1 µM

O=C(O)C(=O)O.[NH-][C@@H]1CCCC[C@H]1[NH-].[Pt+2] [Oxaliplatin]
IC50 (MDA‐MB‐231 [1]; ref Raymond et al. (1997) [66]): 17.9 µM
IC50 (MCF‐7 [2]; MCF‐7, 24 h, ref Raymond et al. (1997) [66]): 7.4 µM

CCc1cccc2c3c([nH]c12)C(CC)(CC(=O)NN1C(=O)CSC1c1c(F)cccc1F)OCC3 (stereo not shown) [SGK 217, 3‐(2‐(1,8‐Diethyl‐1,3,4,9‐tetrahydropyrano[3,4‐b]indole‐1‐yl)acetylhydrazono)‐2‐(2,6‐difluorophenyl)‐4‐thiazolidinone]
Bax/Bcl‐2 ratio change (Bax/Bcl‐2 ratio): significantly rise
Decrease in COX‐2 protein expression compared to the control group (COX‐2 [7]; MCF‐7, 50 µM): 56%
Decrease in COX‐2 protein expression compared to the control group (COX‐2 [7]; MCF‐7, 75 µM): 85%
Increase in apoptosis compared to the control group (L‐929): 3%
Increase in apoptosis compared to the control group (MDA‐MB‐231 [8]): 85%
Apoptotic cells (MCF‐7 [9]; 25 µM): 6%
Dead cells (MCF‐7 [9]; 25 µM): 7%
Live cells (MCF‐7 [9]; 25 µM): 87%
Apoptotic cells (MCF‐7 [9]; 50 µM): 16%
Dead cells (MCF‐7 [9]; 50 µM): 10%
Live cells (MCF‐7 [9]; 50 µM): 74%
Apoptotic cells (MCF‐7 [9]; 75 µM): 18%
Dead cells (MCF‐7 [9]; 75 µM): 27%
Live cells (MCF‐7 [9]; 75 µM): 55%
IC50 (MCF‐7 [10]; MCF‐7, 24 h): 18 ± 3.4 µM
IC50 (MCF‐7 [10]; MCF‐7, 48 h): 12.2 ± 2 µM
IC50 (MCF‐7 [10]; MCF‐7, 72 h): 26.7 ± 4.8 µM
Selectivity index (SI) (MCF‐7 [10]; [17]): 4.0
Selectivity index (SI) (MCF‐7 [10]; [18]): 2.4
Selectivity index (SI) (MCF‐7 [10]; MCF‐7 in comparison to L‐929, 72 h): 1
IC50 ([11]; L929, 24 h, L‐929, 24 h): 72 ± 3.2 µM
IC50 ([11]; L929, 48 h, L‐929, 48 h): 29.6 ± 0.94 µM
IC50 ([11]; L929, 72 h, L‐929, 72 h): 26.3 ± 0.112 µM
Apoptotic cells (MDA‐MB‐231 [12]; 25 µM): 0%
Dead cells (MDA‐MB‐231 [12]; 25 µM): 7%
Live cells (MDA‐MB‐231 [12]; 25 µM): 93%
Apoptotic cells (MDA‐MB‐231 [12]; 50 µM): 23%
Dead cells (MDA‐MB‐231 [12]; 50 µM): 11%
Live cells (MDA‐MB‐231 [12]; 50 µM): 66%
Increase in apoptosis compared to the control group (MCF‐7 [13]): 51%
IC50 (MDA‐MB‐231 [14]; [19]): 36 ± 1.6 µM
IC50 (MDA‐MB‐231 [14]; [20]): 13.8 ± 1.6 µM
IC50 (MDA‐MB‐231 [14]; MDA-MB-231, 72 h, MDA‐MB‐231, 72 h): 14.6 ± 1.4 µM
Selectivity index (SI) (MDA‐MB‐231 [14]; [21]): 2.0
Selectivity index (SI) (MDA‐MB‐231 [14]; [22]): 2.1
Selectivity index (SI) (MDA‐MB‐231 [14]; MDA‐MB‐231 in comparison to L‐929, 72 h): 1.8
Decrease in COX‐2 protein expression compared to the control group (COX‐2 [15]; MDA‐MB‐231, 50 µM): 61%
Decrease in COX‐2 protein expression compared to the control group (COX‐2 [15]; MDA‐MB‐231, 75 µM): 84%
c‐PARP (89‐kD fragment) protein change (c‐PARP): consistent activation; also recorded: significant increase

CCc1cccc2c3c([nH]c12)C(CC)(Cc1n[nH]c(=S)n1Cc1ccccc1)OCC3 (stereo not shown) [SGK 242, 5‐[(1,8‐Diethyl‐1,3,4,9‐tetrahydropyrano[3,4‐b]indole‐1‐yl)methyl]‐4‐benzyl‐2,4‐dihydro‐3H‐1,2,4‐triazole‐3‐thione]
Toxicity on all cell lines [16]: severe toxicity
IC50 (MCF‐7 [10]; MCF‐7, 24 h): 22 ± 0.1 µM
IC50 (MCF‐7 [10]; MCF‐7, 48 h): 12 ± 3.3 µM
Selectivity index (SI) (MCF‐7 [10]; [17]): 1.7
Selectivity index (SI) (MCF‐7 [10]; [18]): 3.6
IC50 ([11]; L929, 24 h, L‐929, 24 h): 38 ± 8.05 µM
IC50 ([11]; L929, 48 h, L‐929, 48 h): 44.2 ± 2.45 µM
IC50 (MDA‐MB‐231 [14]; [19]): 31 ± 2.5 µM
IC50 (MDA‐MB‐231 [14]; [20]): 24 ± 1.2 µM
Selectivity index (SI) (MDA‐MB‐231 [14]; [21]): 1.2
Selectivity index (SI) (MDA‐MB‐231 [14]; [22]): 1.8
